Results as given in patent US20100048488A1, “IMMUNOMODULATORY PEPTIDES” (Syntonix Pharmaceuticals, Inc., priority 2008, published 2010).

Experiments:
[1] = Pharmacokinetics in SD rats (serum peptide concentration by LCMS); format: in vivo; conditions: rat, sc, single subcutaneous dose, peptide concentration 30 mg/mL; for level at 0.5 h: timepoint 0.5 hr; for level at 2 h: timepoint 2.00 hr; for level at 4 h: timepoint 4.00 hr; for level at 6 h: timepoint 6.00 hr; for level at 24 h: timepoint 24.00 hr; for level at 48 h: timepoint 48.00 hr
Procedure: SD Rats (3 per group) were treated with a single subcutaneous dose of either Peptide 283 or Peptide 310, at a peptide concentration of 30 mg/mL. Blood was collected at 0.5, 2, 4, 6, 24, 48 hours, serum was prepared and the peptide concentrations in serum were determined by LCMS.

[2] = Solubility by visual inspection of lyophilized peptide in buffer; format: physicochemical; conditions: for Solubility at 50 mg/mL peptide in PBS + 40 mM sodium phosphate, pH 7.4, after 30 minutes at room temperature: PBS + 40 mM sodium phosphate pH 7.4, 30 minutes room temperature; for Solubility at 100 mg/mL peptide in 100 mM sodium phosphate, pH 7.4, after 30 minutes at room temperature: 100 mM sodium phosphate pH 7.4, 30 minutes room temperature
[3] = target: T1, soluble human FcRn (shFcRn) (Homo sapiens, UniProt P55899); experiment: Peptide-IgG competition ELISA; format: binding; conditions: 3 nM human IgG, pH 6, 37° C. 2 hours
T1 construct: made in house; host or cells: Chinese hamster ovary (CHO) cells, glutamine synthetase expression system
T1 sequence (P55899 24-297 limits assumed): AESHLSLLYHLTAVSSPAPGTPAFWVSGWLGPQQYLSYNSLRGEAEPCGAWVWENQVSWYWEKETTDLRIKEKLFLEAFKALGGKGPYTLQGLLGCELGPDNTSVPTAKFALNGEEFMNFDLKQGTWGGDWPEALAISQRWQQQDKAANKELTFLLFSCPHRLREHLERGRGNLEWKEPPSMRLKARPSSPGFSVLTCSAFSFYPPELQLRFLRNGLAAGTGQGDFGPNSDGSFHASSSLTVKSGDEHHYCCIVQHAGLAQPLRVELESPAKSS
T1 sequence (P61769 21-119 partner): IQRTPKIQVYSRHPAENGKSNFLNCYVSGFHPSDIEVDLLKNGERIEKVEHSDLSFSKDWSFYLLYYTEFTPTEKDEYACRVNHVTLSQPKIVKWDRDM
Procedure: The wells were coated with 100 μl/well of 1 μg/ml biotinylated-shFcRn in Buffer A. The plate was sealed and incubated at 37° C. for 2 hours. Afterwards, the plate was washed with 200 μl/well of Buffer B (Buffer B: 100 mM MES pH 6, 150 mM NaCl, 0.5% BSA IgG-free (Jackson ImmunoResearch, West Grove, Pa.), 0.05% Tween-20). […] To allow for mixing, the plate was rocked for 2 minutes, sealed and incubated at 37° C. for 2 hours. […] The plate was covered, incubated for 30 minutes at room temperature and washed 4 times with 200 μl/well of ice-cold buffer B. SureBlue TMB substrate solution (100 μl/well, KPL, Gaithersburg, Md.) was added and the plate was allowed to incubate at room temperature until color developed, which took 5 to 10 minutes. Once color developed, 100 μl/well of TMB stop solution (KPL, Gaithersburg, Md.) was added and the absorbance was measured at 450 nm.

Row | Structure (SMILES) | level at 0.5 h [1] | level at 2 h [1] | level at 4 h [1] | level at 6 h [1] | level at 24 h [1] | level at 48 h [1] | Solubility at 50 mg/mL peptide in PBS + 40 mM sodium phosphate, pH 7.4, after 30 minutes at room temperature [2] | Solubility at 100 mg/mL peptide in 100 mM sodium phosphate, pH 7.4, after 30 minutes at room temperature [2] | IC50 [3]
1 | CC(C)C[C@H]1C(=O)N[C@@H](Cc2ccc(O)cc2)C(=O)N2CCC[C@H]2C(=O)N[C@H](C(N)=O)CSSC(C)(C)[C@H](NC(=O)[C@H](Cc2ccccc2)NC(=O)[C@H](CCCNC(=N)N)NC(=O)CCC(=O)N[C@@H](CCCNC(=N)N)C(=O)N[C@@H](Cc2ccccc2)C(=O)N[C@@H]2C(=O)N[C@@H]([C@@H](C)O)C(=O)NCC(=O)N[C@@H](Cc3c[nH]cn3)C(=O)N[C@@H](Cc3ccccc3)C(=O)NCC(=O)N(C)CC(=O)N(C)[C@@H](CC(C)C)C(=O)N[C@@H](Cc3ccc(O)cc3)C(=O)N3CCC[C@H]3C(=O)N[C@H](C(N)=O)CSSC2(C)C)C(=O)N[C@@H]([C@@H](C)O)C(=O)NCC(=O)N[C@@H](Cc2c[nH]cn2)C(=O)N[C@@H](Cc2ccccc2)C(=O)NCC(=O)N(C)CC(=O)N1C [Peptide No. 283] | 23 ± 14 ng/mL | 50 ± 16 ng/mL | 66 ± 42 ng/mL | 68 ± 34 ng/mL | 41 ± 6 ng/mL | 19 ± 4 ng/mL | Insoluble | Insoluble | –
2 | CC(C)C[C@H]1C(=O)N[C@@H](Cc2ccc(O)cc2)C(=O)N2CCC[C@H]2C(=O)N[C@H](C(=O)N[C@@H](CCCCN)C(N)=O)CSSC(C)(C)[C@H](NC(=O)[C@H](Cc2ccccc2)NC(=O)[C@H](CCCNC(=N)N)NC(=O)CCC(=O)N[C@@H](CCCNC(=N)N)C(=O)N[C@@H](Cc2ccccc2)C(=O)N[C@@H]2C(=O)N[C@@H]([C@@H](C)O)C(=O)NCC(=O)N[C@@H](Cc3c[nH]cn3)C(=O)N[C@@H](Cc3ccccc3)C(=O)NCC(=O)N(C)CC(=O)N(C)[C@@H](CC(C)C)C(=O)N[C@@H](Cc3ccc(O)cc3)C(=O)N3CCC[C@H]3C(=O)N[C@H](C(=O)N[C@@H](CCCCN)C(N)=O)CSSC2(C)C)C(=O)N[C@@H]([C@@H](C)O)C(=O)NCC(=O)N[C@@H](Cc2c[nH]cn2)C(=O)N[C@@H](Cc2ccccc2)C(=O)NCC(=O)N(C)CC(=O)N1C [Peptide No. 310] | 137 ± 60 ng/mL | 183 ± 81 ng/mL | 440 ± 156 ng/mL | 557 ± 268 ng/mL | 117 ± 36 ng/mL | 37 ± 15 ng/mL | Soluble | Soluble | 1.8 ± 1.1 nM
3 | CC(C)C[C@H]1C(=O)N[C@@H](Cc2ccc(O)cc2)C(=O)N2CCC[C@H]2C(=O)N[C@H](C(=O)N[C@@H](CCCNC(=N)N)C(N)=O)CSSC(C)(C)[C@H](NC(=O)[C@H](Cc2ccccc2)NC(=O)[C@H](CCCNC(=N)N)NC(=O)CCC(=O)N[C@@H](CCCNC(=N)N)C(=O)N[C@@H](Cc2ccccc2)C(=O)N[C@@H]2C(=O)N[C@@H]([C@@H](C)O)C(=O)NCC(=O)N[C@@H](Cc3c[nH]cn3)C(=O)N[C@@H](Cc3ccccc3)C(=O)NCC(=O)N(C)CC(=O)N(C)[C@@H](CC(C)C)C(=O)N[C@@H](Cc3ccc(O)cc3)C(=O)N3CCC[C@H]3C(=O)N[C@H](C(=O)N[C@@H](CCCNC(=N)N)C(N)=O)CSSC2(C)C)C(=O)N[C@@H]([C@@H](C)O)C(=O)NCC(=O)N[C@@H](Cc2c[nH]cn2)C(=O)N[C@@H](Cc2ccccc2)C(=O)NCC(=O)N(C)CC(=O)N1C [Peptide No. 311] | – | – | – | – | – | – | Insoluble | Insoluble | 1.5 ± 0.7 nM
